Eleven molecules from US20070082876A1, “Novel C18 modified retrosteroids as progesterone receptor modulator compounds” (Solvay Pharmaceuticals GmbH, priority 2005, published 2007) can be followed below.

In assay [1] the test system is progesterone receptor (alkaline phosphatase expression in T47D human breast carcinoma cells). The assay is described as follows: Progesterone-dependent alkaline phosphatase expression assay (AP assay), agonistic and antagonistic mode. The class given is cell-based. The note with it: for inhibition at 0.1 µM: 100 nM compound, inhibition of alkaline phosphatase induction by 1 nM Dydrogesterone, read-out: PI [100 nM] (% inhibition); for activation at 0.1 µM: 48 h, 100 nM compound alone, alkaline phosphatase induction, 100% = 1 nM Dydrogesterone, read-out: PS [100 nM] (% stimulation); for IC50: antagonistic potency against 1 nM Dydrogesterone; for EC50: agonistic potency. On the procedure: The progesterone-dependent modulation of alkaline phosphatase expression was examined using T47D human breast carcinoma cells [Keydar et al., 1979]. The assay was performed as previously described by Di Lorenzo et al. (1991) with the modification of using Dydrogesterone as comparative progestin to determine the antagonistic and agonistic activity.
The cell line was purchased from CLS Cell Lines Service (Hildastrasse 21, D-69214 Eppelheim, Germany).
In brief, the cells were plated in 96-well plates at 40,000 cells/well using the following growth medium: RPMI 1640 with: 10% FBS, 1 mM Sodium Pyruvat MEM, 10 mM Hepes, 0.01 mg/ml Bovine insulin, and 25 μg/ml Gentamycin. After 24 h of cultivation, the growth medium was replaced with medium containing 2% fetal bovine serum and the test compounds were added to each well to achieve the appropriate compound concentration: For determination of agonistic activity only the test compounds were added; for measurement of antagonistic activity the test compounds and additionally Dydrogesterone as standard progesterone agonist was added to a final concentration of 1 nM. After 48 h of cultivation, the medium was removed and the cells were washed with 200 μl of Dulbecco's phosphate-buffered saline without calcium and magnesium (PBS(−)).
Then the cells were fixed with 3.7% formaldehyde in phosphate-buffered saline for 15 min at 22° C. After washing the cells with PBS, 100 μl of a […] (pNPP) solution (pNPP Liquid Substrate System; Sigma) was added to each well and incubated for 2 h at room temperature protected from light. The reaction was stopped with 100 μl 1N NaOH and the absorbance was measured with a spectrophotometer (Victor, Perkin Elmer) at 405 nm.
The results are expressed as alkaline phosphatase induction (as 100% with 1 nM Dydrogesterone) or inhibition (against alkaline phosphatase induction by 1 nM Dydrogesterone) at a certain concentration of test compound.
Calculations: % stimulation=(effect compound−basal)/(effect dydro 1 nM−basal)*100 % inhibition of 1 nM Dydro=100*{1−[(effect compound·basal)/(effect dydro 1 nM·basal)]}
For each compound the % inhibition (PI) and % stimulation (PS), respectively, at a compound concentration of 100 nM was determined. For selected compounds, the corresponding values were measured for several different concentrations, and subsequently were plotted against the concentration of the test compound, and used to calculate the IC50 value (for the antagonistic potency; the IC50 value is the concentration (nM), required to reduce the maximal response by 50%) and EC50 values (for the agonistic potency; the EC50 value is the effective concentration (nM) that produced 50% of the maximum response), respectively.

The target of assay [2] is T1, bovine progesterone receptor (Bos taurus, UniProt F1N712).
T1 construct: uterus tissue as the source of progesterone receptor; tissue CEREP Progesterone receptor-814; host or cells: bovine uterus tissue (the cited method, Hurd & Moudgil 1988, used calf uterus)
T1 sequence (F1N712 1-914): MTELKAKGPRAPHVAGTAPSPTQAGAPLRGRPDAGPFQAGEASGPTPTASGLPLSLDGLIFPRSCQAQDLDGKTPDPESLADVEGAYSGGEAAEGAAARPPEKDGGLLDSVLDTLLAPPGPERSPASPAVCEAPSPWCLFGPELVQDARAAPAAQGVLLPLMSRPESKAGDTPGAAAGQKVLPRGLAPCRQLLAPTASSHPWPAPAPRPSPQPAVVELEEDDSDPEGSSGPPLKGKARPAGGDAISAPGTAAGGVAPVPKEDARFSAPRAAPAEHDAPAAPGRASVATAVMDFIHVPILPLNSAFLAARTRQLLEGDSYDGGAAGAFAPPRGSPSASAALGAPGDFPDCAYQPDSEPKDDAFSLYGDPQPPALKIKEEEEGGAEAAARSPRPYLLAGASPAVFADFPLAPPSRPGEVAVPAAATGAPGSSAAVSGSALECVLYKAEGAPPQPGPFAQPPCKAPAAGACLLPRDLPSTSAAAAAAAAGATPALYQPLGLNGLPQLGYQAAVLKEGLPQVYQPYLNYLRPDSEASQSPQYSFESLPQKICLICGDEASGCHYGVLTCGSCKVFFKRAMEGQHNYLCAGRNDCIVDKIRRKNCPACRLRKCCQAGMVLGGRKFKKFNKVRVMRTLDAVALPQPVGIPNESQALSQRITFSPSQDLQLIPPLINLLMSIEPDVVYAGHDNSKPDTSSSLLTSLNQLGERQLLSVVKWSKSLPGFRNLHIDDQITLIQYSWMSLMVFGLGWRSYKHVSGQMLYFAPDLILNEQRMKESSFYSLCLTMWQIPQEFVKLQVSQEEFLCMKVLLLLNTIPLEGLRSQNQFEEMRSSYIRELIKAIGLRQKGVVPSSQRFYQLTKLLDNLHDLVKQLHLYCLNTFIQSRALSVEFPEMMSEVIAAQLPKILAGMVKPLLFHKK
The assay is described as follows: Progesterone receptor binding assay (CEREP, 3H-R5020 ligand, uterus tissue). The settings on record: bovine PR; 3H-R5020 as ligand, uterus tissue as receptor source; read-out: Progesterone Receptor binding (pKi) (converted). On the procedure:
The progesterone receptor (PR) binding assays were performed at CEREP (Celle I'Evescault, France). The binding to the bovine progesterone receptor (Assay Cat No: Progesterone receptor-814) was measured using 3H-R5020 as ligand and uterus tissue as the source of progesterone receptor. The assay was performed as described by Hurd & Moudgil [1988]. […] The results of the receptor binding assay are presented as the individual pKi values for the bovine PR which were determined by measuring the binding activity for a concentration range of each compound.

A further assay concerns cycling guinea pigs. The assay is described as follows: Guinea pig model (luteolysis and uterine PR expression in cycling guinea pigs). The class given is in vivo. The note with it: 10mg/kg s.c. once daily on days 10-17 of the cycle; FIG. 1. From the text: An assay how to assess the progesterone antagonists (PAs) and progesterone receptor modulators (PRMs) with respect to PR agonistic and antagonistic activities in vivo is described by Elger et al [2000] and within WO 04/014935 using cycling guinea pigs. In this assay, pure PR antagonists inhibit luteolysis at the end of the ovarian cycle, whereas PR agonist and SPRMs support luteolysis, i.e. this is a very sensitive in vivo method to reveal residual agonistic activity of SPRMs. Inhibition of luteolysis is reflected by elevated serum progesterone levels at day 10-17 and inhibition of uterine prostaglandin F2α, as well as by certain histological characteristics in uterus and ovary, such as increased expression of progesterone receptors and decreased glandular differentiation in the uterus, as well as persistence of large intact corpora lutea up to day 18.
Adult female guinea pigs (strain Dunkin Hartley, Crl:HA; body weight 500-700 g) are purchased from Charles River (Sulzfeld, Germany). Blood samples are drawn from the Vena saphena three times a week to monitor ovarian cycles by determination of progesterone levels. […]
Antiluteolytic activity is evaluated by assessment of serum progesterone profiles throughout the treatment period from day 10 to day 17 (FIG. 1).
Antiprogestational effects on the uterus are assessed by determination of the degree of PR expression. […]

Broadly, the inhibition is the share of the control response that was lost under treatment. A word on the IC50: it is the concentration needed to halve the response being measured. High values mean weaker potency, low ones greater potency. Regarding `CC(=O)[C@H]1CC[C@H]2[C@@H]3CCC4=CC(=O)CC[C@@]4(C)[C@@H]3CC[C@]12CCCc1ccc(/C=N/O)cc1` [No. 1], in assay [1], the inhibition at 0.1 µM came out at 60%, the activation at 0.1 µM is 1% and the IC50 is 31.6 nM. Besides, the Ki in assay [2] was 1000 nM.
What is called EC50 is the concentration needed to bring the measured effect to its halfway point. Take `COc1cc(CCC[C@]23CC[C@@H]4[C@@H](C=CC5=CC(=O)CC[C@]54C)[C@@H]2CC[C@@H]3C(C)=O)cc(OC)c1` [compound 29]: in assay [1], the inhibition at 0.1 µM was 69%, the activation at 0.1 µM is 15% and the EC50 is 15.8 nM.
For `CC(=O)[C@H]1CC[C@H]2[C@@H]3C=CC4=CC(=O)CC[C@@]4(C)[C@@H]3CC[C@]12CCCc1ccccc1` [compound 17], in assay [1], the inhibition at 0.1 µM worked out at 79%, the activation at 0.1 µM worked out at 8% and the EC50 was 25.1 nM.
In the case of `CCNC(=O)O/N=C/c1ccc(CCC[C@]23CC[C@@H]4[C@@H](C=CC5=CC(=O)CC[C@]54C)[C@@H]2CC[C@@H]3C(C)=O)cc1` [No. 5], in assay [1], the inhibition at 0.1 µM worked out at 52%, the activation at 0.1 µM worked out at 35% and the IC50 is 5.01 nM. In assay [2], the Ki is 200 nM.
Taken in the same sequence, the figures for `CC(=O)[C@H]1CC[C@H]2[C@@H]3C=CC4=CC(=O)CC[C@@]4(C)[C@@H]3CC[C@]12CCCc1ccc(C(N)=O)cc1` [No. 13] were 79%, 7%, 50.1 nM and 200 nM.
As to `CCNC(=O)O/N=C/c1ccc(CCC[C@]23CC[C@@H]4[C@@H](CCC5=CC(=O)CC[C@]54C)[C@@H]2CC[C@@H]3C(C)=O)cc1` [No. 4], in assay [1], the inhibition at 0.1 µM was determined as 51%, the activation at 0.1 µM worked out at 4% and the 50% inhibitory concentration (IC50) is 50.1 nM. Further, the Ki in assay [2] was 501 nM.
For `CC(=O)[C@H]1CC[C@H]2[C@@H]3C=CC4=CC(=O)CC[C@@]4(C)[C@@H]3CC[C@]12CCCc1ccc(/C=N/O)cc1` [No. 2], in that order: 77%, 10%, 20 nM and 200 nM.
Turning to `COc1cccc(CCC[C@]23CC[C@@H]4[C@@H](C=CC5=CC(=O)CC[C@]54C)[C@@H]2CC[C@@H]3C(C)=O)c1` [compound 25], in assay [1], the inhibition at 0.1 µM is 73%, the activation at 0.1 µM worked out at 12% and the EC50 was 15.8 nM.
For `CC(=O)[C@H]1CC[C@H]2[C@@H]3C=CC4=CC(=O)CC[C@@]4(C)[C@@H]3CC[C@]12C` [dydrogesterone, (9β,10α)-Pregna-4,6-diene-3,20-dione], in the assay with cycling guinea pigs, the “antiluteolytic activity (serum progesterone levels day 10 to day 17)” value is “progesterone levels decrease”.
With `CCNC(=O)O/N=C/c1ccc(CCC[C@]23CC[C@@H]4[C@@H](C=CC5=CC(=O)CC[C@]54C)[C@@H]2CC[C@]3(OC(=O)OCC)C(C)=O)cc1` [No. 6], in assay [1], the inhibition at 0.1 µM was determined as 32%, the activation at 0.1 µM was determined as 60% and the EC50 was 50.1 nM. For the same molecule, the Ki in assay [2] is 501 nM.
In the case of `CC#C[C@]1(O)CC[C@H]2[C@@H]3CCC4=CC(=O)CCC4=C3[C@@H](c3ccc(N(C)C)cc3)C[C@@]21C` [mifepristone], the “antiluteolytic activity (serum progesterone levels day 10 to day 17)” value in the assay with cycling guinea pigs is recorded as “do not decline”.
